One series has as its target T1, 17β-HSD1 (Homo sapiens, UniProt P14061).
T1 construct: In both cases, human placenta served as the enzyme source; from tissue; host or cells: human placenta
T1 sequence (P14061 1-328): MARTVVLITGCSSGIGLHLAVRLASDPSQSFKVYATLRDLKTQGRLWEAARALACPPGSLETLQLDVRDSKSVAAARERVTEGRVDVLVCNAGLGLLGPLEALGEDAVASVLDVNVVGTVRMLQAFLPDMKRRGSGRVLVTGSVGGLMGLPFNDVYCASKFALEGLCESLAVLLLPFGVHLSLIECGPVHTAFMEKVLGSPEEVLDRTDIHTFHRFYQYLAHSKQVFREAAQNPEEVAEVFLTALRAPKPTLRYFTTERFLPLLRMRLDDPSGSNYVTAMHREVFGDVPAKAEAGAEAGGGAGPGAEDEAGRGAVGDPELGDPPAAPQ
Description: Inhibition of 17β-HSD1 (estrone to estradiol, radio-HPLC). The format is biochemical. The conditions noted are these: for IC50: human placenta enzyme, 500 nM estrone, NADH 500 μM; for Selectivity IC50 (17β-HSD2)/IC50 (17β-HSD1): ratio of IC50 values. On the procedure: In the 17β-HSD1 test, NADH is employed as a cosubstrate at a final concentration of 500 μM in order to avoid the product inhibition occurring with NADPH. The enzyme preparation is diluted with test buffer to such an extent that the control conversion is 10 to maximally 20% (about 1:650). As the substrate, estrone in a final concentration of 500 nM is used, of which 3 nM is tritiated. 2,4,6,7-[^3H]estrone is purchased from Perkin-Elmer, Boston. The inhibitor is added as a solution in DMSO (control: pure DMSO without inhibitor; the final concentration of DMSO in the assay is 1% in all cases).
(§1) After the reaction, the substrate and product are extracted by partitioning with ether, separated by chromatography (HPLC) and quantified by means of radiodetection.

The target of the next series is T2, 17β-HSD2 (Homo sapiens, UniProt P37059).
T2 construct: from tissue; host or cells: human placenta, microsome fraction
T2 sequence (P37059 1-387): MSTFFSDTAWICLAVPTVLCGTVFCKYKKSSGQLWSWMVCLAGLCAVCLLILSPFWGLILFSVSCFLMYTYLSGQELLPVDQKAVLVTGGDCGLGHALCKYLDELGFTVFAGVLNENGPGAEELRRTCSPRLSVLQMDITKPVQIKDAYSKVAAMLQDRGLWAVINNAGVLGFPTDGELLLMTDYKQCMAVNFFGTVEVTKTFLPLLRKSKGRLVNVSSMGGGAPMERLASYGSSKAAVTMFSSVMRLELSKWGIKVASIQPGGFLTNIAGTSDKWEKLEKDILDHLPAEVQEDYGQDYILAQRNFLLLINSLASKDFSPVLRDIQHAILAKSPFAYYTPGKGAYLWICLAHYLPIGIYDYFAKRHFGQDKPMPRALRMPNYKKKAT
Description: Inhibition of 17β-HSD2 (estradiol to estrone, radio-HPLC). The format is biochemical. The conditions noted are these: human placenta microsome fraction, 500 nM estradiol, NAD+ 1500 μM. How it is done: Determination of the inhibitory activity of the potential inhibitors: Inhibition of 17β-HSD1 and 17β-HSD2: In both cases, human placenta served as the enzyme source (Lin, S.-X. et al., J. Biol. Chem., 267: 16182-16187 (1992)).
In the 17β-HSD2 test, the natural cosubstrate NAD^+ is employed at a final concentration of 1500 μM. The microsome fraction is diluted in test buffer, so that a control conversion of 20 to 30% results (about 1:350). As the substrate, estradiol in a final concentration of 500 nM is used, of which 3 nM is tritiated. 2,4,6,7-[^3H]estradiol is also purchased from Perkin-Elmer, Boston. The inhibitor is added as a solution in DMSO (control: pure DMSO without inhibitor; the final concentration of DMSO in the assay is […]). After the addition of the substrate, incubation is performed at 37° C. for 20 minutes. The reaction is quenched by the addition of HgCl2 (final concentration of HgCl2: 0.166 mM).
as §1

Series [1] in a line: In vivo pharmacokinetics (rat), peroral cassette dosing. Also noted: species or system Wistar rats. The conditions noted are these: 10 mg/kg; for AUC(0-inf): extrapolated to ∞. On the procedure:
In vivo pharmacokinetics (rat): The compounds 29, 45, 47 and 59 and a reference compound were administered to adult male Wistar rats (n=4) perorally in a cassette dosing method (vehicle: Labrasol/water 1/1). The plasma profiles were established by means of LC-MS/MS.
• Cmax obs highest measured concentration • Cz last analytically quantifiable concentration • tmax obs time to reach the highest measured concentration • tz time to withdrawal of the last sample with analytically quantifiable concentration • t1/2z half life (determined from the slope of the declining portion of the concentration vs. time curve • AUC0-tz area below the concentration vs. time curve up to time tZ • AUC0-∞ area below the concentration vs. time curve, extrapolated to ∞

The structures appear in SMILES notation.

These results are taken from US20110046147A1, “17BETA-HYDROXYSTEROID DEHYDROGENASE TYPE 1 INHIBITORS FOR THE TREATMENT OF HORMONE-RELATED DISEASES” (UNIVERSITAT DES SAARLANDES, priority 2007, published 2011).

As to `Oc1cccc(-c2nnc(-c3cccc(O)c3)o2)c1` [Compound 35, 3,3′-(1,3,4-Oxadiazole-2,5-diyl)diphenol], the “inhibition of 17β-HSD1 at a concentration of 1 μM (in words)” value (from here on “inhibition of 17β-HSD1”) against 17β-HSD1 was “do not show any inhibition”.

Regarding `Oc1cccc(-c2ccc(-c3cc(F)c(O)c(F)c3)s2)c1` [Compound 48, 2,6-Difluoro-4-[5-(3-hydroxyphenyl)-2-thienyl]phenol], on 17β-HSD1, the IC50 came out at 50 nM and the “Selectivity IC50 (17β-HSD2)/IC50 (17β-HSD1)” value (“Selectivity IC50” for short) was 4.6. At 17β-HSD2, this compound came in with a 50% inhibitory concentration (IC50) of 230 nM.

For `Oc1ccc(-c2ccsc2-c2ccc(O)cc2)cc1` [Compound 27, 4,4′-Thiene-2,3-diyldiphenol], the “inhibition of 17β-HSD1” value on 17β-HSD1 is “do not show any inhibition”.

`Oc1cccc(-c2nnc(-c3cccc(O)c3)nn2)c1` [Compound 59, 3,3′-(1,2,4,5-Tetrazine-3,6-diyl)diphenol]: on 17β-HSD1, the IC50 stood at 200 nM and the “Selectivity IC50” value amounted to 26. The compound further had an IC50 on 17β-HSD2 of 5100 nM. The “tz (time of last sample with quantifiable concentration)” value in series [1] was 10.0 h. In addition, the Cz (last analytically quantifiable concentration) in series [1] (plasma) stood at 54 ng/mL. For the same compound, in series [1] (male, Wistar, plasma, po), the AUC(0-t) turned out to be 1200 ng·h/mL and the AUC(0-inf) was 1200 ng·h/mL. Besides, the half-life in series [1] (male, Wistar, plasma, po, read-out: t1/2z (half life) (converted)) is 1.2 h. The Tmax in series [1] (male, Wistar, plasma, po, read-out: tmax obs (time to reach the highest measured concentration)) is 3 h.

For `Oc1ccc(-c2cnc(-c3ccc(O)cc3)s2)cc1` [Compound 21, 4,4′-(1,3-Thiazole-2,5-diyl)diphenol], on 17β-HSD1, the “inhibition of 17β-HSD1” value was “do not show any inhibition”.

Turning to `Cc1cc(-c2cnc(-c3cccc(O)c3)s2)ccc1O` [Compound 56, 4-[2-(3-Hydroxyphenyl)-1,3-thiazole-5-yl]-2-methylphenol], the IC50 against 17β-HSD1 is 100 nM; against 17β-HSD2, 2020 nM. The “Selectivity IC50” value on 17β-HSD1 turned out to be 20.

As for `Oc1ccc(-c2ccc(-c3cccc(O)c3)cc2)cc1` [Compound 44, [1,1′;4′,1″]Terphenyl-4,3″-diol], on 17β-HSD1, the midpoint of inhibition, the IC50, lay at 240 nM and the “Selectivity IC50” value amounted to 19. This compound showed an IC50 against 17β-HSD2 of 4500 nM.

Compound `Oc1cccc(-c2ccc(-c3cccc(F)c3)s2)c1` [Compound 50, 3-[5-(3-Fluorophenyl)-2-thienyl]phenol] yielded an IC50 at 17β-HSD1 of 530 nM.

Consider `COc1ccc(-c2nsc(-c3cccc(O)c3)n2)cc1` [Compound 38, 3-[3-(4-Methoxyphenyl)-1,2,4-thiadiazole-5-yl]phenol], for which the IC50 against 17β-HSD1 was 820 nM.

As for `Oc1cccc(-c2cnc(-c3cccc(O)c3)cn2)c1` [Compound 58, 3,3′-Pyrazine-2,5-diyldiphenol], on 17β-HSD1, the concentration for half-maximal inhibition (IC50) came to 1000 nM and the “Selectivity IC50” value was found to be 5.5. The IC50 against 17β-HSD2 worked out at 5500 nM.

The compound `Oc1cccc(-c2ccc(-c3ccc(F)cc3)s2)c1` [Compound 54, 3-[5-(4-Fluorophenyl)-2-thienyl]phenol] gave an IC50 against 17β-HSD1 of 720 nM.

For `Oc1cccc(-c2ccc(-c3ccccc3)s2)c1` [Compound 52, 3-(5-Phenyl-2-thienyl)phenol], the IC50 on 17β-HSD1 is 340 nM; on 17β-HSD2 it was 2340 nM. At 17β-HSD1, the “Selectivity IC50” value worked out at 6.9.

For `Oc1ccc(-c2nsc(-c3cccc(O)c3)n2)cc1` [Compound 40, 3-[3-(4-Hydroxyphenyl)-1,2,4-thiadiazole-5-yl]phenol], at 17β-HSD1, the midpoint of inhibition, the IC50, lay at 360 nM and the “Selectivity IC50” value amounted to 6.1. At 17β-HSD2, this compound yielded an IC50 of 2200 nM.

Turning to `Oc1cccc(-c2csc(-c3cccc(O)c3)c2)c1` [Compound 34, 3,3′-Thiene-2,4-diyldiphenol], the figures for the IC50 against 17β-HSD1 and against 17β-HSD2 were 170 nM and 560 nM, respectively. In addition, on 17β-HSD1, the “Selectivity IC50” value was found to be 3.3.

As for `Oc1cccc(-c2ccc(-c3cccc(O)c3)s2)c1` [Compound 31, 3,3′-Thiene-2,5-diyldiphenol], the IC50 is 110 nM at 17β-HSD1 and 750 nM on 17β-HSD2. In addition, the “Selectivity IC50” value at 17β-HSD1 is 6.8.

Take `Cc1cc(-c2csc(-c3cccc(O)c3)c2)ccc1O` [Compound 55, 4-[5-(3-Hydroxyphenyl)-3-thienyl]-2-methylphenol]: on 17β-HSD1, it took 100 nM to reach half-maximal inhibition (IC50) and the “Selectivity IC50” value came to 8.7. Moreover, the IC50 against 17β-HSD2 is 870 nM.

`Cc1cc(-c2ccc(-c3cccc(O)c3)s2)ccc1O` [Compound 45, 4-[5-(3-Hydroxyphenyl)-2-thienyl]-2-methylphenol]: on 17β-HSD1, inhibition was half-maximal at 40 nM (IC50) and the “Selectivity IC50” value worked out at 49. The compound also had an IC50 on 17β-HSD2 of 1970 nM. In series [1], the “t1/2z (half life)” value is given as 3.8 h, the “tmax obs (time to reach the highest measured concentration)” value is on record as 4.0 h and the “tz (time of last sample with quantifiable concentration)” value is reported as 24.0 h. For the same compound, the Cz (last analytically quantifiable concentration) in series [1] (plasma) was determined as 43.4 ng/mL. For the same compound, in series [1] (male, Wistar, plasma, po), the AUC(0-t) is 12000 ng·h/mL and the AUC(0-inf) was 12300 ng·h/mL.

Consider `Oc1ccc(-c2ccc(-c3ccc(O)cc3)s2)cc1` [Compound 30, 4,4′-Thiene-2,5-diyldiphenol], for which the “inhibition of 17β-HSD1” value on 17β-HSD1 is given as “do not show any inhibition”.

On 17β-HSD1, `Oc1cccc(-c2ccc(-c3ccc(O)c(C(F)(F)F)c3)s2)c1` [Compound 49, 4-[5-(3-Hydroxyphenyl)-2-thienyl]-2-(trifluoromethyl)phenol] displayed an IC50 of 40 nM.

Turning to `Oc1ccc(-c2cccc(-c3cccc(O)c3)c2)cc1` [Compound 43, [1,1′;3′,1″]Terphenyl-4,3″-diol], at 17β-HSD1, the IC50 is 1410 nM and the “Selectivity IC50” value is reported as 2.2. In addition, the IC50 against 17β-HSD2 stood at 3100 nM.

As for `Oc1ccc(-c2csc(-c3cccc(O)c3)c2)cc1` [Compound 33, 3-[4-(4-Hydroxyphenyl)-2-thienyl]phenol], on 17β-HSD1, inhibition was half-maximal at 70 nM (IC50) and the “Selectivity IC50” value came to 18. On 17β-HSD2, this compound showed an IC50 of 1270 nM.

Take `Oc1cccc(-c2ccc(-c3cccc(O)c3)nc2)c1` [Compound 57, 3,3′-Pyridine-2,5-diyldiphenol]: on 17β-HSD1, half-maximal inhibition (IC50) was put at 100 nM and the “Selectivity IC50” value is 34. For the same compound, half-maximal inhibition against 17β-HSD2 (IC50) required 3400 nM.

`CS(=O)(=O)Nc1cccc(-c2ccc(-c3cccc(O)c3)s2)c1` [Compound 51, N-{3-[5-(3-Hydroxyphenyl)-2-thienyl]phenyl}methanesulfonamide]: the IC50 against 17β-HSD1 came out at 520 nM.

Turning to `Oc1cccc(-c2ccc(-c3ccc(O)c(O)c3)s2)c1` [Compound 46, 4-[5-(3-Hydroxyphenyl)-2-thienyl]benzene-1,2-diol], the half-inhibitory concentration (IC50) against 17β-HSD1 stood at 800 nM; at 17β-HSD2 it was 1640 nM. Also, the “Selectivity IC50” value on 17β-HSD1 is given as 2.1.

Consider `Oc1cccc(-c2nnc(-c3cccc(O)c3)s2)c1` [Compound 36, 3,3′-(1,3,4-Thiadiazole-2,5-diyl)diphenol], for which the IC50 against 17β-HSD1 worked out at 510 nM.

On to `Oc1ccc(-c2nsc(-c3ccc(O)cc3)n2)cc1` [Compound 39, 4,4′-(1,2,4-Thiadiazole-3,5-diyl)diphenol], for which the “inhibition of 17β-HSD1” value against 17β-HSD1 is recorded as “do not show any inhibition”.

One may read the IC50 as the concentration needed to halve the response being measured. A high value points to weaker potency. What is called AUC(0-t) is the area under the concentration-time curve up to a stated or last time point. Lower therefore signals less exposure. Usually AUC(0-inf) stands for the area under the concentration-time curve extrapolated to infinity.
